Tests used:
[1] = tested on: TRPM8 on cutaneous nerve terminals (C fibers); experiment: Skin-nerve preparation, menthol-evoked activation of C fibers; design: species or system mouse; details: 10 μM; 300 μM menthol; n = 22; p = 0.005
From the text: Adult C57BL/6 mice were obtained from Jackson Laboratories and used for ex vivo skin-nerve preparations. Mice were allowed to acclimate to the animal facility at the Medical College of Wisconsin, an Association for the Assessment and Accreditation of Laboratory Animal […] (AALAC)-accredited facility, for approximately 1 week following shipment. Animals were housed with up to four other cagemates and had ad libitum access to food pellets and hyper-chlorinated water. Mice were housed on a 14:10 h light-dark cycle in cages containing aspen bedding and paper nesting material. Room temperatures averaged 21 °C. Prior to use, animals were briefly anesthetized with inhaled isoflurane and then sacrificed via cervical dislocation.
The mouse saphenous skin-nerve in vitro preparation (Koltzenburg et al. [1997]; Stucky et al. [1999]) was used for electrophysiological recordings of cutaneous terminals of primary afferent fibers in situ. […] Once a unit with a signal to noise ratio >2 was identified, the mechanical threshold was determined using calibrated von Frey filaments (range, 0.44–147.0 mN). […]
Wave forms of action potentials evoked by mechanical stimuli were saved on an oscilloscope for comparison of shape and profile. […] Action potentials were discriminated and counted off-line using a spike histogram software extension. […] All data was also analyzed in a blinded manner.

[2] = tested on: CFA-injected rats; experiment: CFA-induced hypersensitivity (rearing on prickly floor); assay type: in vivo, rat; details: 100 mg/kg p.o.; p > 0.05 vs CFA vehicle ([…] s)
Method: Rats were habituated in a reversed light cycle room for at least 1 week and to the testing room for 1 h prior to dosing. […] Twenty-one hours after the CFA injection, animals were treated (p.o.) with vehicle (5 % Tween 80 in OraPlus®) or TRPM8 antagonist. Two hours after drug dosing (23 h after CFA injection), rats were placed in the same Kinder Scientific open field boxes as described above but with customized prickly floor inserts placed inside. Rearing time and rearing counts were measured for 60 min.

[3] = tested on: TRPM8-mediated icilin-induced wet-dog shakes in rats; experiment: Icilin-induced wet-dog shake (WDS) model; assay type: in vivo, rat
Method: The TRPM8 antagonist (1, 3, or 10 mg/kg) or vehicle control (5 % Tween 80 in OraPlus®) was administered p.o. 90 min prior to administration of icilin (0.5 mg/kg, 1 ml/kg, i.p., 100 % PEG 400). […] Rats were viewed through transparent Plexiglas® observation cylinders that were placed on a custom, opaque, plastic apparatus such that one rat could not view another rat.
In vivo IC50 and IC90 estimates using WDS model data were determined by fitting a sigmoidal dose-response curve to individual animal number of WDS versus resulting plasma concentration. Behavioral and electrophysiological data are expressed as mean ± standard error of the mean (S.E.M.). Results were analyzed using one-way analysis of variance (ANOVA) with Dunnett’s multiple-comparisons post-hoc test for significance relative to vehicle. […] Actual gram values are plotted on a logarithmic scale Y-axis of the figures for convenience. Statistical calculations and graphs were made using GraphPad Prism 5.01 (GraphPad Software Inc, San Diego, CA). Percent responders to menthol stimulation in the ex vivo skin-nerve preparation were compared under vehicle and antagonist conditions through the use of Fisher’s exact test. Responses of C fibers to increasing mechanical forces under vehicle or antagonist conditions were compared using a two-way ANOVA with a Bonferonni post-hoc analysis.

[4] = Plasma protein binding by ultracentrifugation; assay type: in vitro ADME; details: male, rat plasma
Method: The unbound fraction in plasma was determined by ultracentrifugation.

IC90 ([3]; Rattus norvegicus, ip, unbound plasma concentration, icilin 0.5 mg/kg i.p., read-out: Rat PD IC90 (unbound mean in vivo IC90, WDS model)): 99 nM
fraction unbound at 15 min, 5 ug/mL [4]: 0.119
SMILES: C[C@H](NC(=O)N1CCc2cccnc2[C@H]1c1ccc(C(F)(F)F)cc1)C(F)(F)F [AMG2850, (R)-8-(4-(trifluoromethyl)phenyl)-N-((S)-1,1,1-trifluoropropan-2-yl)-5,6-dihydro-1,7-naphthyridine-7(8H)-carboxamide]
effect on menthol-evoked firing of C fibers [1]: completely inhibited all menthol-evoked firing
rearing time, CFA model [2]: 157 ± 25 s
prevention of icilin-induced WDS ([3]; 10 mg/kg p.o., 90 min before icilin 0.5 mg/kg i.p.): Full prevention
ED50 ([3]; Rattus norvegicus, p.o., icilin 0.5 mg/kg i.p., read-out: Rat PD ED50): 1.8 mg/kg

— paper PMC4359714 (Naunyn-Schmiedeberg's Archives of Pharmacology, 2015)
